The values that follow come from patent US8563530B2, “Purine nucleoside phosphoramidate” (Gilead Pharmassel LLC, priority 2010, dated 2013).

Data set [1] relates to HCV replicon RNA-containing Huh7 cells (clone A cells). Description: HCV replicon assay. The format is cell-based. The following applies: for Replicon assay result in combination with compound 1: synergism: assayed in combination with compound 1. Here is the method:
HCV replicon assay. HCV replicon RNA-containing Huh7 cells (clone A cells; Apath, LLC, St. Louis, Mo.) were kept at exponential growth in Dulbecco's modified Eagle's medium (high glucose) containing 10% fetal bovine serum, 4 mM L-glutamine and 1 mM sodium pyruvate, 1× nonessential amino acids, and G418 (1,000 μg/ml). Antiviral assays were performed in the same medium without G418. Cells were seeded in a 96-well plate at 1,500 cells per well, and test compounds were added immediately after seeding. Incubation time 4 days. At the end of the incubation step, total cellular RNA was isolated (RNeasy 96 kit; Qiagen). Replicon RNA and an internal control (TaqMan rRNA control reagents; Applied Biosystems) were amplified in a single-step multiplex RT-PCR protocol as recommended by the manufacturer.
To express the antiviral effectiveness of a compound, the threshold RT-PCR cycle of the test compound was subtracted from the average threshold RT-PCR cycle of the no-drug control (ΔCtHCV). A ΔCt of 3.3 equals a 1-log 10 reduction (equal to the 90% effective concentration [EC90]) in replicon RNA levels. The cytotoxicity of the test compound could also be expressed by calculating the ΔCtrRNA values. The ΔΔCt specificity parameter could then be introduced (ΔCtHCV−ΔCtrRNA), in which the levels of HCV RNA are normalized for the rRNA levels and calibrated against the no-drug control. Compound 1 was tested for its biological properties based on the preceding assay.

A short description of data set [2]: GVS analysis (hygroscopicity). The format is physicochemical.

Take `CC(C)(C)OC(=O)N[C@H]1CCCCC/C=C\[C@@H]2C[C@@]2(C(=O)NS(=O)(=O)C2CC2)NC(=O)[C@@H]2C[C@@H](OC(=O)N3Cc4cccc(F)c4C3)CN2C1=O` [ITMN-191]: the “Replicon assay result in combination with compound 1: synergism” value in data set [1] is “synergism”. `CC(C)OC(=O)[C@H](C)N[P@](=O)(OC[C@H]1O[C@@H](n2ccc(=O)[nH]c2=O)[C@](C)(F)[C@@H]1O)Oc1ccccc1` [compound E]: the “Replicon assay result in combination with compound 1: synergism” value in data set [1] was “synergism”. Regarding `COc1nc(N)nc2c1ncn2[C@@H]1O[C@H](CO[P@@](=O)(N[C@@H](C)C(=O)OC(C)C)Oc2ccccc2)[C@@H](O)[C@@]1(C)F.O` [Compound 1.H2O, (S)-2-{(S)-[(1R,4R,5R)-5-(2-Amino-6-methoxy-purin-9-yl)-4-(R)-fluoro-3-hydroxy-4-methyl-tetrahydro-furan-2-ylmethoxy]-phenoxy-phosphorylamino}-propionic acid isopropyl ester monohydrate], in data set [2], the GVS hygroscopicity result is listed as “very low hygroscopicity”. Further, in data set [2] (at 90% RH), the “GVS reversible weight gain” value was determined as 0.47 % w/w. Turning to `COc1nc(N)nc2c1ncn2[C@@H]1O[C@H](CO[P@@](=O)(N[C@@H](C)C(=O)OC(C)C)Oc2ccccc2)[C@@H](O)[C@@]1(C)F` [Compound 1, SP-(2S)-isopropyl 2-(((((2R,3R,4R,5R)-5-(2-amino-6-methoxy-9H-purin-9-yl)-4-fluoro-3-hydroxy-4-methyltetrahydrofuran-2-yl)methoxy)(phenoxy)phosphoryl)amino)propanoate], the EC90 in data set [1] (Hepatitis C virus, Huh-7, 96 h, clone A cells, incubation time 4 days, replicon RNA by RT-PCR, 1-log 10 reduction, read-out: CloneA EC90) came to 20 nM.
